The numbers were not newly measured in publication PMC5959268 (Journal of medicinal chemistry, 2016), which cites them from elsewhere.

For orientation: Kd means a measure of binding affinity in units of concentration.

One series addresses CRF-R1. As to conditions: read-out: Kd of tracer at CRF-R1; saturation binding of radioligand.
The test system of another series is hair regrowth. To be noted: aging CRF-overexpressing mice.
For series [1], the system named is CRF-stimulated ACTH release by cultured rat anterior pituitary cells. To be noted: rat pituitary cells in culture and adrenalectomized rats.

Counter-ions that a name gives are not always drawn. *1 amine or outer side, *2 acyl side, *3 side chain or, on linkers, in order; H or OH if unused. Where no end group is shown, it is not given here. [ ]: non-standard residue; d: D form. Tyr(125I) = tyrosine labelled with iodine-125, O=C([C@H](Cc1ccc(O[*:3])c([125I])c1)N[*:1])[*:2]

With “[^125ITyr^0-Glu^1]-PD-Svg YEGTSLDLTFDLLRHNLEIAKQEALKKQAAKNRLLLDTI-NH2 ([Tyr(125I)]EGTSLDLTFDLLRHNLEIAKQEALKKQAAKNRLLLDTI-NH2)”, the dissociation constant (Kd) at CRF-R1 is 0.42 nM.

Take `CCCCN(CC)c1nc(C)nc2c1c(C)c(C)n2-c1c(C)cc(C)cc1C` [antalarmin, N-butyl-N-ethyl-2,5,6-trimethyl-7-(2,4,6-trimethylphenyl)-7H-pyrrolol[2,3-d]pyrimidin-4-amine hydrochloride]: the hair regrowth entry in the series on hair regrowth was “spotty results”.

`Nc1cc(N2CCCCC2)nc(N)[n+]1[O-]` [minoxidil, 2,4-pyrimidinediamine, 6-(1-piperidinyl)-, 3-oxide]: the hair regrowth entry in the series on hair regrowth was “spotty results”.

Turning to [D-Phe^12,Nle^21,38]-h/rCRF(12–41), in series [1], the “potency relative to α-helical-CRF(9–41) at inhibiting release of ACTH” value is ~ 18 times.
